According to patent publication US10221163B2 (priority 2015, dated 2019):
Where two headings read alike, the source gives them in different places.

How the values were obtained:
[1] = system: Pseudomonas aeruginosa efflux− (MB9799), IMP-1; type: cell-based; settings: concentration restoring susceptibility to imipenem at 2 μg/mL in the presence of a class A, C, D serine β-lactamase inhibitor closely related to relebactam
How it was run: (§1)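 Microbroth MIC tests in PAO1-background strains with fixed imipenem and/or ceftazidime, usually at the CLSI breakpoint, plus fixed class A/C β-lactamase inhibitor against AmpC. MBL inhibitor titrated; concentration restoring susceptibility recorded and compared as fold difference between efflux+ MB9798 and efflux− MB9799.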

[2] = system: Pseudomonas aeruginosa MB9798 vs MB9799; settings: ratio MITC95 PA_9798/MITC95 PA_9799
How it was run: as §1

VIM-1 = VIM-1 (Pseudomonas aeruginosa (strain ATCC 15692 / DSM 22644 / CIP 104116 / JCM 14847 / LMG 12228 / 1C / PRS 101 / PAO1), UniProt A0A0F7KYQ8); experiment: biochemical; settings: CCF2-FA substrate, 30 pM enzyme, 2 hours at 25° C.
How it was run: (§2)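 IC50 values derive from 4-parameter fits of percent inhibition against inhibitor concentration on semi-log axes. Activity was monitored by fluorescence with the CCF2-FA substrate after a 2-hour, 25° C incubation of compound, enzyme and substrate.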

[3] = system: Pseudomonas aeruginosa efflux+ (MB9798), IMP-1; type: cell-based; settings: concentration restoring susceptibility to imipenem at 2 μg/mL in the presence of a class A, C, D serine β-lactamase inhibitor closely related to relebactam
How it was run: as §1

IMP-1 = IMP-1 (Serratia marcescens, UniProt P52699); experiment: biochemical; type: biochemical; settings: fluorescence assay, CCF2-FA substrate, 2 pM enzyme, 2 hours at 25° C.; read-out: IMP-1 IC50
How it was run: as §2

NDM-1 = NDM-1 (Klebsiella pneumoniae, UniProt C7C422); experiment: biochemical; type: biochemical; settings: fluorescence assay, CCF2-FA substrate, 1 pM enzyme, 2 hours at 25° C.; read-out: NDM-1 IC50
How it was run: as §2

[4] = system: Escherichia coli expressing NDM-1 (CLB30005, CLB30016); type: cell-based; settings: with imipenem 1 μg/ml; 95% inhibition of bacterial growth
How it was run: (§3)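 Growth by absorbance after 22–24 h at 35°C defined the read-out, with imipenem fixed at 1 μg/ml alongside compound. Inocula came from overnight blood-agar colonies at 35°C, resuspended in saline and diluted 1:100 in 1.1×CAMHB.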

[5] = system: Klebsiella pneumoniae expressing VIM-1 (IHMA599644); type: cell-based; settings: with imipenem 1 μg/ml; 95% inhibition of bacterial growth
How it was run: as §3

[6] = system: Serratia marcescens expressing IMP-1 (CL5741); type: cell-based; settings: with imipenem 1 μg/ml; 95% inhibition of bacterial growth
How it was run: as §3

[7] = fluorescence assay, read-out: VIM-1 IC50

IMP-1, sequence (P52699 whole entry, looked up, species assumed): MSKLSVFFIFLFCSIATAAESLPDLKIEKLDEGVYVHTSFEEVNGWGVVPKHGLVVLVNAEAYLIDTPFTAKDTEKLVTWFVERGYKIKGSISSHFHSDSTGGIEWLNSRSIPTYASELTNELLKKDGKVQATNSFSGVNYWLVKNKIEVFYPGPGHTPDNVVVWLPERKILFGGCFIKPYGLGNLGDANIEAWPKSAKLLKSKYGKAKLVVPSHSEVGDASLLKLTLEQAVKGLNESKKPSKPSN
NDM-1, sequence (C7C422 whole entry, looked up, species assumed): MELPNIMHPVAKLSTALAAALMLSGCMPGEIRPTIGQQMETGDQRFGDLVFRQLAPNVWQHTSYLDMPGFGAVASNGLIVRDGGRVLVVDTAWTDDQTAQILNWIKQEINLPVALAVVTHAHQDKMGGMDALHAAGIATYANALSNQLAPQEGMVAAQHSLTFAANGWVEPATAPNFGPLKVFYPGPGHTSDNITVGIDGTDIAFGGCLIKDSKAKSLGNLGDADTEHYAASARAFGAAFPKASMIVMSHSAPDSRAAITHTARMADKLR

| Structure (SMILES) | P. aeruginosa expressing IMP-1, efflux − (MB9799) MITC95 [1] | Efflux ratio [2] | IC50 (VIM-1; [7]) | P. aeruginosa expressing IMP-1, efflux + (MB9798) MITC95 [3] | IC50 (IMP-1) | IC50 (NDM-1) | Escherichia coli expressing NDM-1 (CLB30016) MITC95 [4] | Klebsiella pneumoniae expressing VIM-1 (IHMA599644) MITC95 [5] | Serratia marcescens expressing IMP-1 (CL5741) MITC95 [6] | IC50 (VIM-1; VIM-1 IC50, fluorescence assay) |
| --- | --- | --- | --- | --- | --- | --- | --- | --- | --- | --- |
| Cn1c(N)nc2c(-c3ccc(S(=O)(=O)NCCCN)c(S(N)(=O)=O)c3-c3nn[nH]n3)cccc21 [Example 183, 4-(2-amino-1-methyl-1H-benzo[d]imidazol-4-yl)-N^1-(3-aminopropyl)-3-(2H-tetrazol-5-yl)benzene-1,2-disulfonamide] | 0.7813 µM | 1.00 | 0.11 nM | 0.7813 µM | 0.338 nM | 0.0539 nM | 0.3906 µM | 0.7813 µM | 0.7813 µM |  |
| C[C@H](N)CNS(=O)(=O)c1ccc(-c2cccc3[nH]c(N)nc23)c(-c2nn[nH]n2)c1S(N)(=O)=O [Example 184, 4-(2-amino-1H-benzo[d]imidazol-4-yl)-N1-((S)-2-aminopropyl)-3-(2H-tetrazol-5-yl)benzene-1,2-disulfonamide] | 0.7813 µM | 1.00 | 0.189 nM | 0.7813 µM | 0.673 nM | 0.0347 nM | 0.3906 µM | 0.7813 µM | 0.7813 µM |  |
| C[C@@H](N)CNS(=O)(=O)c1ccc(-c2cccc3[nH]c(N)nc23)c(-c2nn[nH]n2)c1S(N)(=O)=O [Example 185, 4-(2-amino-1H-benzo[d]imidazol-4-yl)-N1-((R)-2-aminopropyl)-3-(2H-tetrazol-5-yl)benzene-1,2-disulfonamide] | 0.5906 µM | 0.65 | 0.19 nM | 0.3844 µM | 0.524 nM | 0.0476 nM | 0.2135 µM | 1.025 µM | 0.7688 µM |  |
| C[C@@H](CN)NS(=O)(=O)c1ccc(-c2cccc3[nH]c(N)nc23)c(-c2nn[nH]n2)c1S(N)(=O)=O [Example 186] | 0.7813 µM | 2.00 |  | 1.563 µM | 4.09 nM | 0.366 nM | 0.7813 µM | 1.563 µM | 1.563 µM | 0.901 nM |
| C[C@H](CN)NS(=O)(=O)c1ccc(-c2cccc3[nH]c(N)nc23)c(-c2nn[nH]n2)c1S(N)(=O)=O [Example 187, 4-(2-amino-1H-benzo[d]imidazol-4-yl)-N^1—((R)-1-aminopropan-2-yl)-3-(2H-tetrazol-5-yl)benzene-1,2-disulfonamide] | 0.7813 µM | 0.50 |  | 0.3906 µM | 0.23 nM | 0.0212 nM | 0.5859 µM | 1.172 µM | 0.7813 µM | 0.0982 nM |
| NC(=O)[C@H](N)CNS(=O)(=O)c1ccc(-c2cccc3[nH]c(N)nc23)c(-c2nn[nH]n2)c1S(N)(=O)=O [Example 188, (2R)-2-amino-3-(4-(2-amino-1H-benzo[d]imidazol-4-yl)-2-sulfamoyl-3-(2H-tetrazol-5-yl)phenylsulfonamido)propanamide] | 1.563 µM | 0.50 | 0.213 nM | 0.7813 µM | 0.613 nM | 0.0756 nM | 1.563 µM | 3.125 µM | 1.563 µM |  |
